Test results from publication PMC5643073 (ACS combinatorial science, 2017).

Assays:
[1] = Cytotoxicity assay; settings: human, HEK293T cells
[2] = in vitro; settings: human

| SMILES | CC50 at 18 h [1] [µM] | CC50 at 18 h [2] [µM] |
| --- | --- | --- |
| Cc1cc(SCc2sc(-c3ccc(C(F)(F)F)c(F)c3)nc2C)ccc1OCC(=O)O [Compound 31] | > 50 |  |
| Cc1cc(SCc2sc(-c3ccc(C(F)(F)F)cc3)nc2C)ccc1OCC(=O)O [Compound 13] |  | > 33 |
